Laboratory results: patent US9113629B2, “4-amino-6-(4-substituted-phenyl)-picolinates and 6-amino-2-(4-substituted-phenyl)-pyrimidine-4-carboxylates and their use as herbicides” (DOW AGROSCIENCES LLC, priority 2013, dated 2015)
Like-named read-outs stand apart in the source and are kept apart here.

Columns and labels:
[1] = test system: Key Broadleaf Weed and Crop Species; assay: Post-emergent Test II herbicidal activity (Table 5); format: in vivo; settings: post-emergence, 336 h, 14 days after application; for pest or weed control at 70 g/ha: application rate 70 g ai/ha; for pest or weed control at 140 g/ha: application rate 140 g ai/ha
In short: (§1)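 Visual injury ratings (0 = no injury, 100 = complete kill) were taken 14 d after treatment, relative to untreated plants. Seedlings at the first–second true leaf stage received overhead spray at 187 L/ha; the highest rate was serially diluted to ½×, ¼×, ⅛× and 1/16×.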

[2] = test system: Key Grass and Sedge Weeds as well as Grass Crops; assay: Post-emergent Test II herbicidal activity (Table 6); format: in vivo; settings: post-emergence, 336 h; for pest or weed control at 70 g/ha: 70 g ai/ha; for pest or weed control at 140 g/ha: 140 g ai/ha
In short: as §1

[3] = ABUTH: velvetleaf (Abutilon theophrasti), read-out: Visual Growth Reduction (%) 14 Days After Application, ABUTH
[4] = AMARE: redroot pigweed (Amaranthus retroflexus), read-out: Visual Growth Reduction (%) 14 Days After Application, AMARE
[5] = BRSNN: oilseed-rape, canola (Brassica napus), read-out: Visual Growth Reduction (%) 14 Days After Application, BRSNN
[6] = CHEAL: lambsquarters (Chenopodium album), read-out: Visual Growth Reduction (%) 14 Days After Application, CHEAL
[7] = EPHHL: wild poinsettia (Euphorbia heterophylla), read-out: Visual Growth Reduction (%) 14 Days After Application, EPHHL
[8] = HELAN: sunflower (Helianthus annuus), read-out: Visual Growth Reduction (%) 14 Days After Application, HELAN
[9] = VIOTR: wild pansy (Viola tricolor), read-out: Visual Growth Reduction (%) 14 Days After Application, VIOTR
[10] = CYPES: yellow nutsedge (Cyperus esculentus), read-out: Visual Growth Reduction (%) 14 Days After Application, CYPES
[11] = DIGSA: crabgrass (Digitaria sanguinalis), read-out: Visual Growth Reduction (%) 14 Days After Application, DIGSA
[12] = ECHCG: barnyardgrass (Echinochloa crus-galli), read-out: Visual Growth Reduction (%) 14 Days After Application, ECHCG
[13] = ORYSA: rice (Oryza sativa), crop, read-out: Visual Growth Reduction (%) 14 Days After Application, ORYSA
[14] = SETFA: giant foxtail (Setaria faberi), read-out: Visual Growth Reduction (%) 14 Days After Application, SETFA
[15] = SORVU: grain sorghum (Sorghum vulgare), read-out: Visual Growth Reduction (%) 14 Days After Application, SORVU
[16] = TRZSS (wheat, Triticum aestivum), crop, read-out: Visual Growth Reduction (%) 14 Days After Application, TRZSS
[17] = ZEAMX: maize, corn (Zea mays), crop, read-out: Visual Growth Reduction (%) 14 Days After Application, ZEAMX

Structure (SMILES)	pest or weed control at 70 g/ha [1, 3] [%]	pest or weed control at 140 g/ha [1, 3] [%]	pest or weed control at 70 g/ha [1, 4] [%]	pest or weed control at 140 g/ha [1, 4] [%]	pest or weed control at 70 g/ha [1, 5] [%]	pest or weed control at 140 g/ha [1, 5] [%]	pest or weed control at 70 g/ha [1, 6] [%]	pest or weed control at 140 g/ha [1, 6] [%]	pest or weed control at 70 g/ha [1, 7] [%]	pest or weed control at 140 g/ha [1, 7] [%]	pest or weed control at 70 g/ha [1, 8] [%]	pest or weed control at 140 g/ha [1, 8] [%]	pest or weed control at 70 g/ha [1, 9] [%]	pest or weed control at 140 g/ha [1, 9] [%]	pest or weed control at 70 g/ha [2, 10] [%]	pest or weed control at 140 g/ha [2, 10] [%]	pest or weed control at 70 g/ha [2, 11] [%]	pest or weed control at 140 g/ha [2, 11] [%]	pest or weed control at 70 g/ha [2, 12] [%]	pest or weed control at 140 g/ha [2, 12] [%]	also measured
COC(=O)c1nc(-c2ccc(F)c(F)c2F)c(F)c(N)c1Cl [Compound 186]	95 to 100	95 to 100	95 to 100	95 to 100	85 to 94	95 to 100	95 to 100	95 to 100	95 to 100	95 to 100	85 to 94	95 to 100	85 to 94	95 to 100	85 to 94	85 to 94	45 to 59	60 to 74	85 to 94	95 to 100	pest or weed control at 70 g/ha [2, 13]: 0 to 29%; pest or weed control at 140 g/ha [2, 13]: 30 to 44%; pest or weed control at 70 g/ha [2, 14]: 0 to 29%; pest or weed control at 140 g/ha [2, 14]: 60 to 74%; pest or weed control at 70 g/ha [2, 15]: 60 to 74%; pest or weed control at 140 g/ha [2, 15]: 75 to 84%; pest or weed control at 70 g/ha [2, 16]: 60 to 74%; pest or weed control at 140 g/ha [2, 16]: 60 to 74%; pest or weed control at 70 g/ha [2, 17]: 75 to 84%; pest or weed control at 140 g/ha [2, 17]: 85 to 94%; melting point: 147 to 148 °C
COC(=O)c1ccc(-c2nc(C(=O)OC)c(Cl)c(N)c2F)cc1 [Compound 190, methyl 4-amino-3-chloro-5-fluoro-6-(4-(methoxycarbonyl)phenyl)picolinate]	0 to 29	0 to 29	0 to 29	30 to 44	0 to 29	0 to 29	60 to 74	30 to 44	0 to 29	0 to 29	0 to 29	0 to 29	0 to 29	0 to 29	0 to 29	0 to 29	0 to 29	0 to 29	0 to 29	0 to 29	pest or weed control at 70 g/ha [2, 13]: 0 to 29%; pest or weed control at 140 g/ha [2, 13]: 0 to 29%; pest or weed control at 70 g/ha [2, 14]: 0 to 29%; pest or weed control at 140 g/ha [2, 14]: 0 to 29%; pest or weed control at 70 g/ha [2, 15]: 0 to 29%; pest or weed control at 140 g/ha [2, 15]: 0 to 29%; pest or weed control at 70 g/ha [2, 16]: 0 to 29%; pest or weed control at 140 g/ha [2, 16]: 0 to 29%; pest or weed control at 70 g/ha [2, 17]: 0 to 29%; pest or weed control at 140 g/ha [2, 17]: 0 to 29%; melting point: 163 to 165 °C
